Key:
St. Aereus = assay: Anti-microbial activity by agar dilution, St. Aereus; assay type: cell-based; conditions: after 10, 20, 40, and 60 min at all dilutions 1:100, 1:200, 1:400, 1:800
Procedure: (§1) The antibacterial properties of the synthesized compounds were studied by the method of agar dilution. Test solutions of each compound was prepared in a concentration of 1% using dimethylformamide as a solvent. Then the test solutions were diluted in a physiological solution to obtain the final experimental dilutions of 1:100, 1:200, 1:400, and 1:800. The effect of these substances was compared with furacillin in a controllable study. The testing microbes used were gram positive bacteria St. Aereus, gram negative bacteria E. Coli, and Ps. aeruginosa and Candida albicans fungi. The experiments used for this survey were a meat-pentonlu agar (EPA) for cultivation of bacteria and a Saburo environment for fungi. Each experiment used 1 mL of test solution on each plate for 500 min. Next, 2 drops of emulsified test solution with microbes feel were added. All experimental samples were taken from the agar after 10, 40, 60 minutes in the environment on the basis of Patrk planted. Bacteria were cultivated at a temperature of 37° C. for 1 day and the mushroom was kept in a thermostat for […] at a temperature of 28° C. Then results were checked.

E. Coli = assay: Anti-microbial activity by agar dilution, E. Coli; assay type: cell-based; conditions: after 10, 20, 40, and 60 min at all dilutions 1:100, 1:200, 1:400, 1:800
Procedure: as §1

Ps. Aeroqonaza = assay: Anti-microbial activity by agar dilution, Ps. Aeroqonaza; assay type: cell-based, Ps. aeruginosa; conditions: after 10, 20, 40, and 60 min at all dilutions 1:100, 1:200, 1:400, 1:800
Procedure: as §1

Candida albicans = assay: Anti-microbial activity by agar dilution, Candida albicans; assay type: cell-based; conditions: after 10, 20, 40, and 60 min at all dilutions 1:100, 1:200, 1:400, 1:800
Procedure: as §1

melting point: 137 to 139 °C
SMILES: CN(C)CCCn1c(-c2cnccc2O)nc(-c2ccccc2)c1-c1ccccc1 [3-(1-(3-(dimethylamino)propyl)-4,5-diphenyl-1H-imidazol-2-yl)pyridin-4-ol]
inhibition activity, St. Aereus (in words) (St. Aereus): showed the most inhibition activity
inhibition activity, E. Coli (in words) (E. Coli): showed the most inhibition activity
inhibition activity, Ps. aeruginosa (in words) (Ps. Aeroqonaza): showed the most inhibition activity
inhibition activity, Candida albicans (in words) (Candida albicans): showed the most inhibition activity
